Holding throughout (test): inhibition of tumour cell growth, NCI panel, 48 h
The test system of assay [1] is LOX IMVI melanoma.
The subject of assay [2] is NCI-H23 lung.
The subject of assay [3] is K-562 leukemia.
For assay [4], the system named is EKVX NSCLC.
For assay [5], the system named is SK-OV-3 ovarian.
The test system of assay [6] is HCC-2998 colon.
The subject of assay [7] is BT-549 breast.
Assay [8] relates to MCF7 breast.
The test system of assay [9] is MDA-MB-231 breast.
The test system of assay [10] is T-47D breast.

“And” between values parts separate entries of the source, which are not always exact repeats. Identical values can stand only once.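 Where inhibition never reached the appropriate level, the endpoint shown equals the highest concentration tested. Otherwise, values were interpolated linearly from a five-concentration, 48-hour dose response in 96-well plates. GI50 = concentration required for 50% inhibition of growth. TGI marks complete inhibition of growth.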 Bounds are passed on as bounds.

Experimental findings from PubChem BioAssay (NCI) are described below.

Consider `Cn1c(=O)c(NC(=O)C(Cl)(Cl)Cl)nc2ccccc21`, for which the TGI in assay [1], in [2], in assay [3], in [4], in assay [5] and in assay [6] was above 100 µM in each case.

For the molecule `COC(=O)C1=C(c2ccc(OC)c(OC)c2)OC(c2cc(OC)c(OC)c(OC)c2)C1` (configuration not stated), the TGI is above 100 µM in assay [1]; above 100 µM in assay [2]; above 100 µM in assay [3]; above 100 µM in assay [4]; 56.8 µM in assay [5]; above 100 µM in assay [6].

With `O=C(CCC(=O)Nc1ccc(Cl)c(Cl)c1)CC(=O)c1ccc(F)cc1`, the TGI in assay [1], in assay [2], in assay [3], in assay [4], in assay [5] and in assay [6] was above 100 µM throughout.

As for `CN(C)c1nnnn1-c1c(N)n(C)c(=O)n(C)c1=O`, the TGI in [1], in assay [2], in assay [3], in assay [4], in assay [5] and in [6] was above 100 µM in each case.

Turning to `CCCCCCCCCCCCCCCCNCCCN(C)CCCN`, the TGI in assay [1] is 42 µM; in assay [2], 34.1 µM; in [3], 49.5 µM; in assay [4] it was 42.8 µM; in assay [5], 34.6 µM; in [6], 33.4 µM.

Take `COc1cc(NS(C)(=O)=O)ccc1Nc1c2ccccc2nc2ccccc12`: the GI50 in assay [1] is 0.351 µM and 0.306 µM and 0.31 µM; in assay [2], 0.55 µM and 0.377 µM and 0.368 µM; in [3], 1.94 µM and 1.87 µM and 0.624 µM; in assay [7], 3.14 µM [middle of 4 runs]; in assay [4] it was 4.77 µM and 3.01 µM and 2.84 µM; in [5], 0.557 µM and 0.239 µM and 0.288 µM. The GI50 in assay [6] was 2.4 µM and 2.19 µM and 2.34 µM.

Take `CCOc1ccc2c(c1)[n+]([O-])c(-c1ccc(Br)cc1)c(N)[n+]2[O-]`: the TGI in [1] was above 100 µM; in [2] it was 70.8 µM; in assay [3], above 100 µM; in [4] it was above 100 µM; in [5] it was above 100 µM; in assay [6], above 100 µM.

For `CN(C)c1ccc(/C=C/c2ccc(/C=C/c3ccc(N(C)C)cc3)cc2)cc1`, the TGI in assay [1], in assay [2], in assay [3], in assay [4], in [5] and in [6] was above 100 µM each time.

`COC(=O)C1OC2(CCCC3CC32)O[C@H]1C(=O)OC` (some centres not stated): the TGI in assay [1], in [2], in [3], in [8], in assay [7] and in [9] was above 100 µM throughout. In addition, the TGI in assay [4], in [5] and in [6] was above 100 µM throughout.

As for `C[N+](C)(C)CC1CCC/C1=N/O` (configuration not stated), the TGI was 38.4 µM in [1]; above 100 µM in assay [2]; 44.6 µM in assay [3]; above 100 µM in [4]; above 100 µM in [5]; above 100 µM in assay [6].

As for `Cc1nnc2c3nnc(C)n3c3ccccc3n12`, the TGI in assay [1], in assay [2], in assay [3], in assay [4], in assay [5] and in [6] was above 100 µM each time.

As for `N#CC1CCCCOCCOCCOCCOCCOCCCCCC1=O` (configuration not stated), the TGI in assay [1], in assay [2], in [3], in assay [4], in assay [5] and in [6] was above 100 µM in each case.

For `O=C(/C=C/c1ccco1)c1ccc(NCc2nc3ccccc3[nH]2)cc1`, the TGI is 29.8 µM in assay [1]; 27.5 µM in [2]; 40.9 µM in [3]; 29.9 µM in assay [4]; 43.3 µM in assay [5]; 27.7 µM in [6].

As to `S=c1nc(COc2ccc(Cl)cc2Cl)[nH][nH]1`, the TGI in [1], in [2], in [3], in [4] and in assay [6] was above 100 µM in each case.

On to `CS(=O)(=O)NNS(=O)(=O)c1ccccc1`, for which the TGI in assay [1], in [2], in assay [3], in assay [4] and in assay [6] was above 100 µM each time.

As to `CC(=O)NC1C(OCc2ccccc2)OC(CO)C(O)C1OC(C)C(=O)N[C@@H](C)C(=O)N[C@H](CCC(=O)OCCNc1c2ccccc2nc2cccc([N+](=O)[O-])c12)C(N)=O` (some centres not stated), the TGI is 0.00545 µM in assay [2]; above 0.1 µM in [3]; 0.00472 µM in [4]; 0.0288 µM in assay [5]; 0.00378 µM in [6].

As for `NC(=O)c1c([N+](=O)[O-])cc(C(F)(F)F)cc1[N+](=O)[O-]`, the TGI was above 100 µM in assay [1]; 98.9 µM in [2]; above 100 µM in assay [3]; above 100 µM in assay [4]; above 100 µM in assay [5]; above 100 µM in assay [6].

`Cc1ccc(NC(=O)C2C(=O)N(c3ccc(C)c(C)c3)C(=O)/C2=N\NC(N)=O)cc1C` (configuration not stated): the TGI in assay [1], in assay [2], in [3], in [4], in assay [5] and in assay [6] was above 100 µM in each case.

For the molecule `O=S(=O)(O)c1ccc(N=Nc2nc(C(F)(F)F)c(C(F)(F)F)[nH]2)cc1`, the TGI in [1] is 29.2 µM; in assay [2] it was 68.7 µM; in assay [3] it was above 100 µM; in assay [4] it was above 100 µM; in assay [5] it was above 100 µM.

On to `Cc1noc2c1C(=O)CCC2`, for which the TGI in [1], in assay [3], in [4] and in assay [5] was above 100 µM throughout.

As for `Clc1ccc(-c2csc(Nc3cccc(-c4csc(-c5ccccc5)n4)c3)n2)cc1`, the GI50 was 3.53 µM in [1]; 11.4 µM in assay [2]; 7.11 µM in assay [3]; 10.3 µM in [8]; 15.8 µM in [7]; 6.77 µM in assay [9]. Also, the figures for the GI50 in [4] and in assay [5] were 8.36 µM and 25.3 µM, respectively. Moreover, the TGI is 9.79 µM in [1]; 26.2 µM in [2]; 16.3 µM in [3]; above 50 µM in assay [8]; 31.4 µM in assay [7]; 15.3 µM in [9]. For the same molecule, the TGI in [4] was 17.7 µM; in assay [5], above 50 µM.

With `CCCCC(C)C(OC(=O)CC(CC(=O)O)C(=O)O)C(CC(C)CC(O)CCCCC(O)CC(O)C(C)N)OC(=O)CC(CC(=O)O)C(=O)O` (configuration not stated), the TGI in assay [1], in assay [2], in [3], in [4], in [5] and in assay [6] was above 100 µM each time.

On to `O=C(CSc1ncn[nH]1)C[P+](c1ccccc1)(c1ccccc1)c1ccccc1`, for which the TGI in [1], in assay [2], in assay [3], in assay [4], in assay [5] and in [6] was above 100 µM each time.

For `Oc1ccc(O)c(-c2cc(-c3ccc(Cl)cc3)nn2-c2ccccc2)c1`, the GI50 in [2] was 2.48 µM; in assay [3], 3.23 µM; in assay [8], 3.88 µM; in assay [7], 21 µM; in assay [9] it was 2.33 µM; in [4] it was 23.9 µM. Moreover, the GI50 in assay [6] was 2.58 µM. Moreover, the TGI in assay [2] is 9.24 µM; in assay [3], 12.1 µM; in assay [8], above 100 µM; in [7], 52.3 µM; in assay [9], 6.82 µM; in assay [4], 51.1 µM. The TGI in assay [6] stood at 4.98 µM.

With `Cc1cc(S(=O)(=O)/N=C/N(C)C)c(SC(=O)c2ccc(Cl)cc2)cc1Cl`, the GI50 in assay [1] is 19.1 µM; in assay [2], 23.2 µM; in [3] it was 46.5 µM; in [8] it was 37.1 µM; in [7], 18.7 µM; in assay [9], 25.8 µM. For the same molecule, the GI50 is 17.4 µM in assay [4], above 100 µM in assay [5] and 17.9 µM in [6]. The TGI in [1] was 35.2 µM; in assay [2] it was 56.2 µM; in assay [3], above 100 µM; in [8] it was above 100 µM; in assay [7], 50.4 µM; in [9] it was 69.9 µM. For the same molecule, the TGI in [4] was 51.1 µM; in [5], above 100 µM; in assay [6], 38.2 µM.

Regarding `C#CC[N+](C)(CC#C)CC#C`, the TGI in [1], in assay [2], in assay [3], in [4], in [5] and in [6] was above 100 µM throughout.

With `Cc1cccc(C(C)C)c1N1C(=O)C(=O)C(c2nc3ccccc3o2)C(=O)C1=O`, the TGI in assay [1], in assay [2], in assay [3], in [4], in [5] and in assay [6] was above 100 µM each time.

Consider `NC(=O)c1ccccc1NC(=O)C(=O)Cc1nc2ccccc2[nH]c1=O`, for which the TGI in assay [1], in assay [2], in [3], in assay [4], in assay [5] and in assay [6] was above 100 µM throughout.

For the molecule `COC(=O)C(=CNC(N)=O)C(=O)OC`, the TGI in assay [1], in assay [2], in assay [3], in [10], in [8] and in assay [4] was above 100 µM in each case.

For the molecule `O=C(O)C1CCCCC1c1c2ccc(=O)c(O)c-2oc2c(O)c(O)ccc12` (configuration not stated), the TGI in assay [1] is 32.6 µM; in [3], 60.6 µM; in assay [10], above 100 µM; in assay [8], 37.5 µM; in assay [9] it was 38.1 µM; in assay [4], above 100 µM. The molecule also yielded a TGI in [5] above 100 µM.

For `O=[N+]([O-])c1ccc(-c2noc(-c3ccc(Cl)cc3)c2C2=NCCN2)cc1`, the TGI in assay [1], in [3], in [4] and in assay [6] was above 100 µM each time.

On to `CC(=O)c1c(CN(C)c2ccccc2)n([O-])c2ccccc2[n+]1=O`, for which the GI50 in [1] was 38.2 µM; in [2], 16.4 µM; in assay [3] it was 28.6 µM; in assay [8], 15 µM; in assay [7], 25.1 µM; in assay [9] it was 27.1 µM. Also, the GI50 is 41.2 µM in assay [4], 31.8 µM in assay [5] and 30.9 µM in assay [6]. Moreover, the TGI in assay [1] was above 100 µM; in assay [2], 35.3 µM; in assay [3], above 100 µM; in [8], 63 µM; in assay [7] it was 86.6 µM; in assay [9] it was above 100 µM. Also, the TGI is above 100 µM in assay [4], 70 µM in assay [5] and above 100 µM in [6].

Turning to `CN(C)C(=Nc1nc(=[N+](C)C)ss1)N(C)C`, the TGI in assay [2], in assay [3], in assay [4], in assay [5] and in assay [6] was above 100 µM in each case.

For the molecule `O=C(CC1(O)C(=O)Nc2ccc(Br)cc21)c1ccc(Cl)cc1Cl` (configuration not stated), the TGI in assay [2], in assay [3], in [4], in assay [5] and in assay [6] was above 100 µM throughout.

As to `O=[N+]([O-])c1ccc(Cl)c(C2CC(c3cccc4ccccc34)=Nc3ccccc3S2)c1` (configuration not stated), the TGI in assay [1] was 59.2 µM; in [2] it was 20.8 µM; in assay [3], above 69.6 µM; in assay [4], above 100 µM; in assay [5], above 100 µM; in assay [6] it was above 100 µM.
